Experimental findings from paper PMC9518286, “Design, synthesis, biological evaluation and molecular docking study of 2,4-diarylimidazoles and 2,4-bis(benzyloxy)-5-arylpyrimidines as novel HSP90 N-terminal inhibitors” (Journal of Enzyme Inhibition and Medicinal Chemistry, 2022) are described below.

SMILES strings stand for the structures.

The target in experiment [1] is T1, HSP90α (Homo sapiens, UniProt P07900).
T1 construct: gene HSP90AA1; N-terminal domain
In words: biochemical. On the set-up: fluorescence polarisation competition with FITC-labelled geldanamycin on HSP90α N-terminal domain (BPS kit 50293). As to conditions: read-out: FP IC50. The procedure:
The binding affinity for HSP90α was evaluated using a commercially available Hsp90α N-terminal domain assay kit (Catalogue: #50293, BPS Bioscience, CA, USA). According to the manufacturer’s instructions, 5x HSP90 assay buffer (5 μL), 40 mM dithiothreitol (5 μL), 2 mg/mL BSA (5 μL), and H2O (40 μL) were sequentially added to each well. After the addition of diluted FITC-labelled geldanamycin solution (100 nM, 5 μL), compounds at different concentrations (10 μM, 1.0 μM, 0.1 μM, 0.01 μM) were added. The reaction was initiated by the addition of 20 μL of Hsp90α (17 ng/μL). After 2 h of incubation with slow shaking at room temperature, the fluorescent polarisation was measured using Synergy H1 (BioTek Instruments, Inc.). The excitation and emission wavelengths were 485 nm and 530 nm, respectively. IC50 values were calculated based on the signal changes in the FP competition assay. The experiments were performed in triplicate. To further verify the binding of the synthesised compounds to the HSP90 N-terminus, the binding affinity of five typical compounds (16j, 16l, 16m, 22k, and 22l) was evaluated using an FP assay. The addition of compounds with HSP90 inhibitory capacity into the assay would compete with the fluorescence probe for binding into HSP90, resulting in a decrease in FP in comparison with the probe alone.

Experiment [2] deals with T1, HSP90α. The experiment can be described thus: fluorescence polarisation competition with FITC-geldanamycin (BPS kit #[…]). Format: binding.

On to `Clc1ccc(-c2cn(Cc3ccccc3)c(-c3ccc(Cl)cc3)n2)cc1` [16l, 1-Benzyl-2,4-bis(4-chlorophenyl)-1H-imidazole], for which the IC50 on HSP90α [1] came out at 570 ± 60 nM.

The molecule `Oc1ccc(-c2cnc(OCc3ccccc3)nc2OCc2ccccc2)cc1` [22k, 4–(2,4-Bis(benzyloxy)pyrimidin-5-yl)phenol] displayed a concentration for half-maximal inhibition (IC50) at HSP90α [2] of 210 ± 30 nM.

With `Cc1ccc(-c2cn(Cc3ccccc3)c(-c3ccc(Cl)cc3)n2)cc1` [16j, 1-Benzyl-2–(4-chlorophenyl)-4-(p-tolyl)-1H-imidazole], on HSP90α [1], the concentration for half-maximal inhibition (IC50) turned out to be 610 ± 30 nM.

`Clc1ccc(-c2nc(-c3cccc(Cl)c3)cn2Cc2ccccc2)cc1` [16m, 1-Benzyl-4–(3-chlorophenyl)-2–(4-chlorophenyl)-1H-imidazole]: the 50% inhibitory concentration (IC50) at HSP90α [1] was found to be 620 ± 110 nM.

Consider `Oc1cccc(-c2cnc(OCc3ccccc3)nc2OCc2ccccc2)c1` [22l, 3–(2,4-Bis(benzyloxy)pyrimidin-5-yl)phenol], for which the IC50 on HSP90α [1] is 580 ± 110 nM.
